From PubChem BioAssay AID1259411 (Chemical Carcinogenesis Research Information System (CCRIS), 2018)
The source made the active and inactive calls. How the calls were made is not given here.

System: rodent carcinogenicity bioassays, tumor incidence
Assay: CCRIS carcinogenicity studies
In short: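 Archive of carcinogenicity, mutagenicity, tumor promotion and tumor inhibition results drawn from journals, NCI reports and other sources, expert-reviewed; covers 1985-2011 and is no longer updated.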

CCc1ccc(C(c2ccc(CC)cc2)C(Cl)Cl)cc1
carcinogen call (Species: MOUSE, Strain/Sex: B6C3F1/FEMALE, Route: ORAL, Dose: 0, 5000 IN DIET FOR FIRST 48 WK FOLLOWED BY 1000 PPM IN DIET FOR LAST 57 WK, 10000 PPM IN DIET FOR 48 WK FOLLOWED BY 300, Dose: 0, 5000 IN DIET FOR FIRST 48 WK FOLLOWED BY 1000 PPM IN DIET FOR LAST 57 WK, 10000 PPM IN DIET FOR 48 WK FOLLOWED BY 300, Tumor Site: Type of Lesion: LIVER: HEPATOCELLULAR CARCINOMA OR ADENOMA): equivocal
carcinogen call (Species: MOUSE, Strain/Sex: B6C3F1/MALE, Route: ORAL, Dose: 0, 2,500, 5,000 PPM IN DIET FOR 105 WK (STUDY DURATION: 105 WK), Dose: 0, 2,500, 5,000 PPM IN DIET FOR 105 WK (STUDY DURATION: 105 WK)): inactive; negative
carcinogen call (Species: RAT, Strain/Sex: F344/FEMALE, Route: ORAL, Dose: 0, 3,500, 7,000 PPM IN DIET FOR 105 WK (STUDY DURATION: 105 WK), Dose: 0, 3,500, 7,000 PPM IN DIET FOR 105 WK (STUDY DURATION: 105 WK)): inactive; negative
carcinogen call (Species: RAT, Strain/Sex: F344/MALE, Route: ORAL, Dose: 0, 3,500, 7,000 PPM IN DIET FOR 105 WK (STUDY DURATION: 105 WK), Dose: 0, 3,500, 7,000 PPM IN DIET FOR 105 WK (STUDY DURATION: 105 WK)): inactive; negative

CNc1nncc2ccccc12
carcinogen call (Species: MOUSE, Strain/Sex: SWISS/MALE,FEMALE, Route: ORAL, Dose: 0.125% IN WATER, Tumor Site: Type of Lesion: LUNG): active; positive
carcinogen call (Species: RAT, Strain/Sex: SPRAGUE-DAWLEY/MALE, Route: ORAL, Dose: 0, 0.035% IN DIET FOR 68-87 WK (STUDY DURATION: 87 WK)): inactive; negative
carcinogen call (Species: RAT, Strain/Sex: SPRAGUE-DAWLEY/MALE, Route: SUBCUTANEOUS, Dose: 0, 16.7 MG/KG 1/WK FOR 87 WK (STUDY DURATION: 87 WK)): inactive; negative
carcinogen call (Species: RAT, Strain/Sex: SPRAGUE-DAWLEY/MALE, Route: SUBCUTANEOUS, Dose: 0, 16.7 MG/KG 1/WK FOR 87 WK ADMINISTERED TO PARTIALLY HEPATECTOMIZED RATS (STUDY DURATION: 87 WK)): inactive; negative
